Like-named read-outs stand apart in the source and are kept apart here.
Key:
histamine receptor H1 = histamine receptor H1 (Homo sapiens, UniProt P35367); experiment: Histamine H1 radioligand binding ([3H]Pyrilamine); details: read-out: Histamine Binding (1 μM) H1, percent inhibition of specific binding, 1 μM
Procedure, shortened: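 Values are percent inhibition of specific [3H]pyrilamine (1.2 nM) binding with compounds at ≤1 μM (1% DMSO vehicle); 180 min incubation at 25 °C, pH 7.4 Tris buffer, on CHO-expressed human H1 receptor; 1 μM pyrilamine defined nonspecific binding, bound ligand counted after filtration.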

[1] = biological target: human dopamine D2L receptor (Homo sapiens, UniProt P14416); experiment: Dopamine D2L radioligand binding ([3H]Spiperone); details: compound at 1 μM
human dopamine D2L receptor, sequence (P14416 whole entry): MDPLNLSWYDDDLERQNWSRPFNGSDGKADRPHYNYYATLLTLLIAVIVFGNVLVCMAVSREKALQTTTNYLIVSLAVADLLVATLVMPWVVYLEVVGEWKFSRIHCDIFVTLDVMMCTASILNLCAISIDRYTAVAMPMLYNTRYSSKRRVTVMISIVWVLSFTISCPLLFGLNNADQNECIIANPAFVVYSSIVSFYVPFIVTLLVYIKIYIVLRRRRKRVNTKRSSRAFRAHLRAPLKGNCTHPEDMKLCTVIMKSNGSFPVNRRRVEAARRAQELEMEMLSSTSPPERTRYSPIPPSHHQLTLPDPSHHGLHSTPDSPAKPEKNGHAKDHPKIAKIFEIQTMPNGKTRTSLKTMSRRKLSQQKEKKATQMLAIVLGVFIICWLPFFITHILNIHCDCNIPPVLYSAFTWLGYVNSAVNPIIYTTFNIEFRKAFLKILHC
Source text: Non-specific binding was estimated in the presence of […] Haloperidol. Receptor proteins were filtered and washed, the filters were then counted to determine [^3H]Spiperone specifically bound. […] Biochemical assay results are presented as the percent inhibition of specific binding in Table 9.

[2] = biological target: T1, human recombinant serotonin (5-Hydroxytryptamine) 5-HT2A receptor (Homo sapiens, UniProt P28223); experiment: Serotonin 5-HT2A radioligand binding ([3H]Ketanserin); details: for inhibition at 0.1 µM: read-out: Inhibition of ligand binding, Serotonin 5-HT2A (percent inhibition of specific binding), compound at 0.1 μM; for inhibition at 1 µM: read-out: Inhibition of ligand binding, Serotonin 5-HT2A (percent inhibition of specific binding), compound at 1 μM
T1 construct: expressed in transfected cells; host or cells: Chinese hamster ovary (CHO-K1) cells
T1 sequence (P28223 whole entry): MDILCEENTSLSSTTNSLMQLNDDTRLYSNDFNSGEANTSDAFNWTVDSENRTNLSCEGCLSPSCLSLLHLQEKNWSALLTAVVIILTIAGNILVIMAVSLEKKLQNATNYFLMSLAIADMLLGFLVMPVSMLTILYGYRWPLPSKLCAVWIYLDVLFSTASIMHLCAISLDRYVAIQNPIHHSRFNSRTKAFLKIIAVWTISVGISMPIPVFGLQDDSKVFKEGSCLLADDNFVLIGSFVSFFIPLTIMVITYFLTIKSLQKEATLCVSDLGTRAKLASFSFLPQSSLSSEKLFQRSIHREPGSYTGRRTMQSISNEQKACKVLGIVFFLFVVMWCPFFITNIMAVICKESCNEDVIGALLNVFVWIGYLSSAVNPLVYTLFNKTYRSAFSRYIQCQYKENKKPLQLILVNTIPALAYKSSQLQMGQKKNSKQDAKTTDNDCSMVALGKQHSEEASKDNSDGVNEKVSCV
Description: (§1) Compounds of the invention were incubated with 0.5 nM [^3H]Ketanserin for 60 min. at 25° C. Non-specific binding was estimated in the presence of 1 μM Mianserin. Receptor proteins were filtered and washed, the filters were then counted to determine [^3H]Ketanserin specifically bound.

[3] = biological target: T2, human recombinant serotonin (5-Hydroxytryptamine) 5-HT2C receptor (Homo sapiens, UniProt P28335); experiment: Serotonin 5-HT2C radioligand binding ([3H]Mesulergine)
T2 construct: expressed in transfected cells; host or cells: Chinese hamster ovary (CHO-K1) cells
T2 sequence (P28335 33-458): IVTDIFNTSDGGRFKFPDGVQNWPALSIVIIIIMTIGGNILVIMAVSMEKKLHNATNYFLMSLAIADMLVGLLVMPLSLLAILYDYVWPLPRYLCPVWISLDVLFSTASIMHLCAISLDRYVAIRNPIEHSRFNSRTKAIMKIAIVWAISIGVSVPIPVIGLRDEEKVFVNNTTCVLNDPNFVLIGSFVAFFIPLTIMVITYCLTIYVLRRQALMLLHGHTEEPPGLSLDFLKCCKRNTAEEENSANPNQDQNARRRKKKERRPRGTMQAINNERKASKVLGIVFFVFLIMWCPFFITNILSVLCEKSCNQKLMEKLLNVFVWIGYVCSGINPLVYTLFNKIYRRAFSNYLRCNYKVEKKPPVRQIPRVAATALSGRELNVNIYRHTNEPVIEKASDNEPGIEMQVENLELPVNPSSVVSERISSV
Description: as §1, with “1” for “0.5”, “[^3H]Mesulergine” for “[^3H]Ketanserin”, “bound. Compounds were screened at 1 μM or lower, using 1% DMSO as vehicle. Biochemical assay results are presented as the percent inhibition of specific binding in Table 10.” for “bound.”

[4] = biological target: T3, human recombinant serotonin (5-Hydroxytryptamine) 5-HT6 receptor (Homo sapiens, UniProt P50406); experiment: Serotonin 5-HT6 radioligand binding ([3H]LSD)
T3 construct: expressed in transfected cells; host or cells: human HeLa cells
T3 sequence (P50406 whole entry): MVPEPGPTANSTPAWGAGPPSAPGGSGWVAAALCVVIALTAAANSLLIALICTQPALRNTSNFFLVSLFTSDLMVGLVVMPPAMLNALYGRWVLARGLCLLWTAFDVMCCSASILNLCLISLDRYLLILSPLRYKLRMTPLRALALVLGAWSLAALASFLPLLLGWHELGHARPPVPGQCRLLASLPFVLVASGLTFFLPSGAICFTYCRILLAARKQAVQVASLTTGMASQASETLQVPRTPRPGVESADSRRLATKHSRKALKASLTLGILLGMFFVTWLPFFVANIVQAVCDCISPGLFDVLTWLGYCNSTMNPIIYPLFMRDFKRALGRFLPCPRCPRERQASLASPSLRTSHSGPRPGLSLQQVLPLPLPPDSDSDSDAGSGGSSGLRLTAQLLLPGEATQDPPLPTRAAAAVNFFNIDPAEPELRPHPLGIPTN
Description: Compounds of the invention were incubated with 1.5 nM [3H]Lysergic acid diethylamide (LSD) for 120 min. at 37° C. […] Receptor proteins were filtered and washed, the filters were then counted to determine [3H]LSD specifically bound. Compounds were screened at 1 μM or lower, using 1% DMSO as vehicle. Biochemical assay results are presented as the percent inhibition of specific binding in Table 10.

[5] = biological target: human recombinant serotonin (5-Hydroxytryptamine) 5-HT7 receptor (Homo sapiens, UniProt P34969); experiment: Serotonin 5-HT7 radioligand binding ([3H]LSD); details: compound at 0.1 μM; for inhibition at 0.1 µM: read-out: Inhibition of ligand binding, Serotonin 5-HT7 (percent inhibition of specific binding)
human recombinant serotonin (5-Hydroxytryptamine) 5-HT7 receptor, sequence (P34969 whole entry): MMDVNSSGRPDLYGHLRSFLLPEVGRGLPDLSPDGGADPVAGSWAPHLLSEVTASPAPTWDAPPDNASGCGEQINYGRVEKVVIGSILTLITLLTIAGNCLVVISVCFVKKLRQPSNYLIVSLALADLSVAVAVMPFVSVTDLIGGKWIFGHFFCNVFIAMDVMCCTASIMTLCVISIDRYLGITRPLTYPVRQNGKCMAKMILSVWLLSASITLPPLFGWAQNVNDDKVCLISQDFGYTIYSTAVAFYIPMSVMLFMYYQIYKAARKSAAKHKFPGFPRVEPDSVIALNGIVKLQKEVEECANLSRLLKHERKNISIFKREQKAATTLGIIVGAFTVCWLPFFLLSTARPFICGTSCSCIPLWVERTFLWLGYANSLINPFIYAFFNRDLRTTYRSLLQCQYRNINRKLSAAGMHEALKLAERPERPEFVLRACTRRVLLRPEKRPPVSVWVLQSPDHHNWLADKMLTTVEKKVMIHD
Source text: Receptor proteins were filtered and washed, the filters were then counted to determine [^3H]LSD specifically bound.

[6] = percent inhibition of specific binding, read-out: Inhibition of ligand binding, Dopamine D2L
[7] = compound at 0.1 μM, read-out: Inhibition of ligand binding, Serotonin 5-HT2C (percent inhibition of specific binding)
[8] = compound at 0.1 μM, read-out: Inhibition of ligand binding, Serotonin 5-HT6 (percent inhibition of specific binding)
[9] = […] [3H]Spiperone, read-out: Inhibition of ligand binding, Dopamine D2L (percent inhibition of specific binding)

histamine receptor H1, sequence (P35367 whole entry): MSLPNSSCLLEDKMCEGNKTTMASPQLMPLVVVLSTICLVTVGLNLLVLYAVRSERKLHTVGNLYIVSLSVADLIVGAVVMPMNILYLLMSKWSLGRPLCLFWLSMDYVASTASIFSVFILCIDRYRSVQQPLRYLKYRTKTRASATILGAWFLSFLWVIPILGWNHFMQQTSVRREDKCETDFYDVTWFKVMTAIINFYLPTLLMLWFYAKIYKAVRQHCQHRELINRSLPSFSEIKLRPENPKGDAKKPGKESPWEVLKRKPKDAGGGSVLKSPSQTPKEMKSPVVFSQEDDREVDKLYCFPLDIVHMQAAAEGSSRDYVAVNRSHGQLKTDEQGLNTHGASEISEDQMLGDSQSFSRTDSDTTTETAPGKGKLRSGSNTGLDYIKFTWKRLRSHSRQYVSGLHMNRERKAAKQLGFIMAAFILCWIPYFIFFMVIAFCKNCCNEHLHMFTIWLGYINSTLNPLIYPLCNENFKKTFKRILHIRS

SMILES	inhibition at 1 µM (histamine receptor H1) [%]	Inhibition of ligand binding, Dopamine D2L ([1]; percent inhibition of specific binding, 1 µM) [%]	Inhibition of ligand binding, Serotonin 5-HT2A (percent inhibition of specific binding) ([2]; compound at 0.1 μM, 0.1 µM) [%]	Inhibition of ligand binding, Serotonin 5-HT2C (percent inhibition of specific binding) ([3]; compound at 0.1 μM, 0.1 µM) [%]	Inhibition of ligand binding, Serotonin 5-HT6 (percent inhibition of specific binding) ([4]; compound at 0.1 μM, 0.1 µM) [%]	Inhibition of ligand binding, Serotonin 5-HT7 (percent inhibition of specific binding) ([5]; 0.1 µM) [%]	inhibition at 1 µM [1, 6] [%]	inhibition at 0.1 µM [2] [%]	inhibition at 0.1 µM [3, 7] [%]	inhibition at 0.1 µM [4, 8] [%]	inhibition at 0.1 µM [5] [%]	inhibition at 1 µM [1, 9] [%]	inhibition at 1 µM ([3]; compound at 1 μM, read-out: Inhibition of ligand binding, Serotonin 5-HT2C (percent inhibition of specific binding)) [%]	inhibition at 1 µM ([4]; compound at 1 μM, read-out: Inhibition of ligand binding, Serotonin 5-HT6 (percent inhibition of specific binding)) [%]	inhibition at 1 µM [2] [%]
C/C(=C\n1c2c(c3cc(Cl)ccc31)CN(C)CC2)c1ccc(F)cc1F [Compound 277, (E)-8-chloro-5-(2-(2,4-difluorophenyl)prop-1-enyl)-2-methyl-2,3,4,5-tetrahydro-1H-pyrido[4,3-b]indole]	95	98	100	98	98	103	–	–	–	–	–	–	–	–	–
C/C(=C\n1c2c(c3cc(C)ccc31)CN(C)CC2)c1ccncn1 [Compound 279, (E)-2,8-dimethyl-5-(2-(pyrimidin-4-yl)prop-1-enyl)-2,3,4,5-tetrahydro-1H-pyrido[4,3-b]indole]	21	–	–	–	–	–	69	75	70	90	53	–	–	–	–
CN1CCc2c(c3cc(Cl)ccc3n2CC(C)(O)c2ccncn2)C1 (stereo not shown) [Compound 198, 1-(8-chloro-2-methyl-3,4-dihydro-1H-pyrido[4,3-b]indol-5(2H)-yl)-2-(pyrimidin-4-yl)propan-2-ol]	64	–	–	–	–	–	5	23	-1	11	4	–	–	–	–
C/C(=C\n1c2c(c3cc(Cl)ccc31)CN(C)C(C)C2)c1ccncc1 (stereo not shown) [Compound 275, (E)-8-chloro-2,3-dimethyl-5-(2-(pyridin-4-yl)prop-1-enyl)-2,3,4,5-tetrahydro-1H-pyrido[4,3-b]indole]	39	–	–	–	–	–	92	93	98	101	72	–	–	–	–
COc1ccc([C@@](C)(O)Cn2c3c(c4cc(C)ccc42)CN(C)CC3)cc1 [Compound 192, 1-(2,8-dimethyl-3,4-dihydro-1H-pyrido[4,3-b]indol-5(2H)-yl)-2-(4-methoxyphenyl)propan-2-ol]	61	–	–	–	–	–	34	91	81	38	78	–	–	–	–
C/C(=C/n1c2c(c3cc(Cl)ccc31)CN(C)CC2)c1ccc(Cl)c(Cl)c1 [Compound 256, (Z)-8-chloro-5-(2-(3,4-dichlorophenyl)prop-1-enyl)-2-methyl-2,3,4,5-tetrahydro-1H-pyrido[4,3-b]indole]	92	–	–	–	–	–	34	100	90	96	85	–	–	–	–
C/C(=C\n1c2c(c3cc(C(C)C)ccc31)CN(C)CC2)c1ccncc1 [Compound 267, (E)-8-isopropyl-2-methyl-5-(2-(pyridin-4-yl)prop-1-enyl)-2,3,4,5-tetrahydro-1H-pyrido[4,3-b]indole]	6	–	–	–	–	–	85	66	54	87	85	–	–	–	–
CN1CCc2c(c3cc(Cl)ccc3n2CC(C)(O)c2cnccn2)C1 (stereo not shown) [Compound 199, 1-(8-chloro-2-methyl-3,4-dihydro-1H-pyrido[4,3-b]indol-5(2H)-yl)-2-(pyrazin-2-yl)propan-2-ol]	61	–	–	–	–	–	16	40	33	25	30	–	–	–	–
C/C(=C\n1c2c(c3cc(Cl)ccc31)CN(CCC(C)(C)O)CC2)c1ccncc1 [compound 404, (E)-4-(8-chloro-5-(2-(pyridin-4-yl)prop-1-enyl)-3,4-dihydro-1H-pyrido[4,3-b]indol-2(5H)-yl)-2-methylbutan-2-ol]	37	–	–	–	–	–	–	–	–	–	–	92	90	95	–
C/C(=C\n1c2c(c3cc(C)ccc31)CN(C(C)C)CC2)c1ccncc1 [Compound 272, (E)-2-isopropyl-8-methyl-5-(2-(pyridin-4-yl)prop-1-enyl)-2,3,4,5-tetrahydro-1H-pyrido[4,3-b]indole]	48	–	–	–	–	–	85	62	40	98	-1	–	–	–	–
CCc1ccc2c(c1)c1c(n2/C=C(\C)c2ccncc2)CCN(C)C1 [Compound 270, (E)-8-ethyl-2-methyl-5-(2-(pyridin-4-yl)prop-1-enyl)-2,3,4,5-tetrahydro-1H-pyrido[4,3-b]indole]	19	–	–	–	–	–	88	92	84	97	79	–	–	–	–
C/C(=C\n1c2c(c3cc(F)ccc31)CN(C)CC2)c1ccc(C)nc1 [Compound 251, (E)-8-fluoro-2-methyl-5-(2-(6-methylpyridin-3-yl)prop-1-enyl)-2,3,4,5-tetrahydro-1H-pyrido[4,3-b]indole]	15	–	–	–	–	–	25	85	77	8	74	–	–	–	–
Cc1ccc2c(c1)c1c(n2CC(O)(c2ccncc2)C(C)C)CCN(C)C1 (stereo not shown) [Compound 194, 1-(2,8-dimethyl-3,4-dihydro-1H-pyrido[4,3-b]indol-5(2H)-yl)-3-methyl-2-(pyridin-4-yl)butan-2-ol]	9	–	–	–	–	–	12	71	47	7	16	–	–	–	–
C/C(=C\n1c2c(c3cc(F)c(F)cc31)CN(C)CC2)c1ccc(C)nc1 [Compound 255, (E)-7,8-difluoro-2-methyl-5-(2-(6-methylpyridin-3-yl)prop-1-enyl)-2,3,4,5-tetrahydro-1H-pyrido[4,3-b]indole]	11	–	–	–	–	–	29	81	69	4	54	–	–	–	–
CN1CCc2c(c3cccc(Cl)c3n2C[C@](C)(O)c2ccncc2)C1 [Compound No. 470, (R)-1-(6-chloro-2-methyl-3,4-dihydro-1H-pyrido[4,3-b]indol-5(2H)-yl)-2-(pyridin-4-yl)propan-2-ol]	17	–	–	–	–	–	–	–	–	–	–	1	–	–	89
CN1CCc2c(c3cccc(Cl)c3n2C[C@@](C)(O)c2ccncc2)C1 [Compound No. 469, (S)-1-(6-chloro-2-methyl-3,4-dihydro-1H-pyrido[4,3-b]indol-5(2H)-yl)-2-(pyridin-4-yl)propan-2-ol]	14	–	–	–	–	–	–	–	–	–	–	12	–	–	87

From US8906925B2, “Pyrido[4,3-B]indoles containing rigid moieties” (Medivation Technologies, Inc., priority 2008, dated 2014)
